Reference: patent US20220241314A1, “COMPOSITIONS AND METHODS FOR TREATMENT OF HEPATITIS B VIRUS INFECTION” (priority 2019, published 2022)

Test system: HBV cccDNA
Assay: Decay kinetics of established cccDNA and HBsAg secretion under treatment from 3 dpi to 20 dpi
Assay type: cell-based, HBV (Genotype D)
Settings: HepG2-hNTCP, treatment from 3 dpi through 20 dpi
Method: (5A) HBV infection and treatment schedule. On day 0 HepG2-hNTCP cells were infected with HBV at moi of 1000 Geq/cell, incubated for 24 hr, and media was replaced. On day three the cells were harvested or treated with DMSO, ETV (500 nM), F7 (10 μM), poly-U/UC (100 ng/ml), or with ETC combination with F7 or poly-U/UC, PAMP. Cells were harvested at the indicated points over a 20-day time course. (5B), (5C) DNA was isolated by Hirt extract and subjected to Southern blot analysis using an HBV-specific DNA probe. Percentage values below each lane indicate the relative amount of cccDNA compared to day three control prior to each treatment. The positions of mass markers are indicated. (5D) cccDNA levels were measured by RT-qPCR. Relative cccDNA values to mitochondrial DNA (MT-CO3) are shown. Statistical significance was determined using Student's t test. Data are presented as mean standard deviation (SD), *P<0.01, **P<0.005, ***P<0.001 and ns=non-significant (E) Half-life of cccDNA from RT-qPCR analyses was estimated from the simultaneous fitting of three replicates under each treatment strategy. C(t) is the % values of cccDNA at time ‘t’ post-treatment, C(0) is the % values of cccDNA at the start of the treatment. (5F) HBsAg across the time course for each treatment series. Statistical significance as determined using Student's t test. Data are presented as mean standard deviations (SD), **P<0.005, and ns=non-significant.
ETV is a nucleoside analog that prevents the viral reverse transcription and replication of new synthesized HBV DNAs, thereby preventing the replenishment of cccDNA by de novo formation. ETV was applied to HBV-infected cultures at a 100-fold IC50 (Langley, D. R., et al. (2007). Inhibition of Hepatitis B Virus Polymerase by Entecavir. Journal of virology 81, 3992-4001) thereby allowing for the measurement of cccDNA half-life under conditions in which levels are sustained only from the initial cccDNA pool. Cells were then harvested over a treatment time course, and DNA extracts were analyzed by Southern blot and qPCR assay. […] J Hepatol 69, 1231-1241). […] Enhanced cccDNA decay kinetics by F7 treatment was also confirmed by RT-PCR analysis (FIG. 5D). […] Thus, F7 and poly-U/UC PAMP impart the therapeutic decay of established cccDNA.
Reverse transcription quantitative real time qPCR (RT-qPCR) analysis: Total cellular RNAs were extracted from cells using TRIZOL reagent and the manufacturers protocol (Invitrogen). cDNA was synthesized from the purified RNA by both random and oligo (dT) priming using iScript select cDNA synthesis kit (Biorad, Inc.). For HBV cccDNA expression analysis, total DNA was extracted using the DNeasy kit (QIAGEN). For selective cccDNA PCR analysis, isolated DNAs were treated with 10 Units of T5 exonuclease (NEB) for 30 min in 10 μl of reaction volume in 37° C., followed by heat-inactivation at 95° C. for 5 min and 4-fold dilution with Nuclease-free water. For extra-cellular HBV DNA quantification, an external HBV plasmid standard was used to program the PCR (Ko, C., et al. (2018), supra).

Compound: C=C1[C@H](CO)[C@@H](O)C[C@@H]1n1cnc2c(=O)[nH]c(N)nc21 [ETV, Entecavir, reference compound]
- production and secretion of HBsAg: Neither ETV nor X RNA treatment of cells had any effect
- cccDNA levels over treatment time course (Southern blot, qPCR) (ETV 500 nM, F7 10 μM, poly-U/UC 100 ng/ml): stably maintained cccDNA levels over the time course
